Assay results taken from patent US10941120B1, “6-aminouracil cassic acid ester with antibacterial activity and a method of preparing the same” (SHAANXI UNIVERSITY OF SCIENCE AND TECHNOLOGY, priority 2020, dated 2021).
Converted amounts (≈) assume the structure as drawn.

Columns and labels:
Format in all cases: cell-based
[1] = test system: methicillin-resistant Staphylococcus aureus MRSA 18-222; experiment: MIC by microbroth dilution, MRSA 18-222
Text: (§1) The minimal inhibitory concentration (MIC) of the compounds as determined by a microbroth dilution method with gentamicin, cefazolin sodium and ceftriaxone sodium as positive control.
(§2) The experimental strains included methicillin-resistant Gram-positive bacteria: methicillin-resistant Staphylococcus aureus MRSA 18-222, 18-575; multiple drug-resistant […] bacteria: vancomycin-resistant enterococci VRE 18-80, 18-94; multidrug-resistant Pseudomonas aeruginosa MDR-PA 18-1774, 18-202; carbapenem-resistant Acinetobacter baumannii CR-AB 18-183, 18-560. All the experimental strains were donated by Huashan Hospital affiliated to Fudan University (Institute of Antibiotics, Fudan University) and used after routine identification.
(§3) Preparation of Test Strains:
(§4) Preparation of MHB medium: 20.0 g MHB medium was added to 1 L distilled water, boiled until completely dissolved, packed in conical bottles and sterilized at 121° C. for 15 min.
(§5) The experimental strain was cultured to the logarithmic growth phase: under aseptic condition, the experimental strain was inoculated into 100 mL NMB medium and incubated in a constant temperature and humidity incubator at 37° C. for 20-22 hours.
(§6) Preparation of storage solution: weigh the sample to be tested, dissolve it with 1% DMSO solution, prepare a storage solution with a concentration of 2560 μg/mL, weigh a positive reference substance, dissolve it with aseptic distilled water, and configure a storage solution with a concentration of 2560 μg/mL.
(§7) Preparation of bacterial suspension: under aseptic condition, the experimental strains cultured to logarithmic growth phase were adjusted to 0.5 MCF turbidity standard with MHB medium and diluted according to 1:10, and the bacterial suspension with concentration of 10^6 CFU/mL was prepared for standby.
(§8) Dilution of storage solution and inoculation of experimental strain: under aseptic condition, the storage solution was diluted to 256 μg/mL solution. Take a sterile 96-well plate, add 200 μL MHB medium to the 12th well, and add 100 μL MHB medium to each well. Add 100 μL of positive control solution to the first well, mix well, and suck 100 μL from it and discard. Add 100 μL of the compound sample solution to the second well, mix well, and then pipette 100 μL to the third well. After mixing, pipette 100 μL to the fourth well, and dilute to the 11th well in this way. Finally, 100 μL was pipetted from the 11th well and discarded. The 12th hole was the growth control without drugs. So far, the concentration of the positive reference substance is 128 μg/mL, the concentrations of the sample solution are 128, 64, 16, 8, 4, 2, 1, 0.5, 0.25 μg/mL respectively. Then, 100 μL of the prepared bacterial suspension is added to each well, so that the final concentration of the bacterial liquid in each well is 5×10^5 CFU/mL.
(§9) Incubation: Cover the 96-well plate inoculated with the experimental strains, and incubate in a constant temperature and humidity box at 37° C. for 20-22 hours.

[2] = test system: methicillin-resistant Staphylococcus aureus MRSA 18-575; experiment: MIC by microbroth dilution, MRSA 18-575
Text: as §1, §2, §3, §4, §5, §6, §7, §8, §9

[3] = test system: vancomycin-resistant enterococci VRE 18-80; experiment: MIC by microbroth dilution, VRE 18-80
Text: as §1, §2, §3, §4, §5, §6, §7, §8, §9

[4] = test system: vancomycin-resistant enterococci VRE 18-94; experiment: MIC by microbroth dilution, VRE 18-94; conditions: for Minimum bacteriostatic concentration: VRE 18-94
Text: as §1, §2, §3, §4, §5, §6, §7, §8, §9

[5] = test system: multidrug-resistant Pseudomonas aeruginosa MDR-PA 18-174; experiment: MIC by microbroth dilution, MDR-PA 18-174; conditions: for Minimum bacteriostatic concentration: MDR-PA 18-174
Text: as §1, §2, §3, §4, §5, §6, §7, §8, §9
In FIGS. 1-6, the twelve wells represent twelve groups, from left to right, positive, 128 μg/mL, 64 μg/mL, 32 μg/mL, 16 μg/mL, 8 μg/mL, 4 μg/mL, 2 μg/mL, 1 μg/mL, 0.25 μg/mL, 0.0625 μg/mL, Negative.

[6] = test system: multidrug-resistant Pseudomonas aeruginosa MDR-PA 18-202; experiment: MIC by microbroth dilution, MDR-PA 18-202
Text: as §1, §2, §3, §4, §5, §6, §7, §8, §9

[7] = test system: carbapenem-resistant Acinetobacter baumannii CR-AB 18-183; experiment: MIC by microbroth dilution, CR-AB 18-183
Text: as §1, §2, §3, §4, §5, §6, §7, §8, §9

[8] = test system: carbapenem-resistant Acinetobacter baumannii CR-AB 18-560; experiment: MIC by microbroth dilution, CR-AB 18-560
Text: as §1, §2, §3, §4, §5, §6, §7, §8, §9

[9] = test system: drug-resistant bacteria; experiment: Antibacterial activity test, whole panel of drug-resistant strains; conditions: all tested strains, summary in words
Text: as §1, §2, §3, §4
The experimental strain was cultured to the logarithmic growth phase: under aseptic condition, the experimental strain was inoculated into 100 mL NMB medium and incubated in a constant temperature and humidity incubator at 37° C. for 20-22 hours. […]

| Molecule | Minimum bacteriostatic concentration [1] [µg/mL] | Minimum bacteriostatic concentration [2] [µg/mL] | Minimum bacteriostatic concentration [3] [µg/mL] | Minimum bacteriostatic concentration [4] [µg/mL] | MIC ([4]; vancomycin resistant Enterococcus VRE, strain not given) [µg/mL] | Minimum bacteriostatic concentration [5] [µg/mL] | MIC ([5]; multi-drug resistant Pseudomonas aeruginosa MDR-PA, strain not given) [µg/mL] | Minimum bacteriostatic concentration [6] [µg/mL] | Minimum bacteriostatic concentration [7] [µg/mL] | Minimum bacteriostatic concentration [8] [µg/mL] | inhibitory effect on drug-resistant bacteria [9] |
| --- | --- | --- | --- | --- | --- | --- | --- | --- | --- | --- | --- |
| O=C(Nc1cc(=O)[nH]c(=O)[nH]1)c1cc(O)c2c(c1)C(=O)c1cccc(O)c1C2=O [6-Aminouracil cassic acid ester, N-(2,6-dioxo-1,2,3,6-tetrahydropyrimidin-4-yl)-4,5-dihydroxy-9,10-dioxo-9,10-dihydroanthracene-2-carboxamide] | >128 | >128 | >128 | 64 | 64 (≈ 163 µM) | 128 | 128 (≈ 325 µM) | >128 | >128 | >128 |  |
| Nc1cc(=O)[nH]c(=O)[nH]1 [6-Aminouracil] | >128 | >128 | >128 | >128 |  | >128 |  | >128 | >128 | >128 | no inhibitory effect |
| O=C(O)c1cc(O)c2c(c1)C(=O)c1cccc(O)c1C2=O [Cassic acid] | >128 | >128 | >128 | >128 |  | >128 |  | >128 | >128 | >128 | no inhibitory effect |
| gentamicin | 128 | 2 | 0.0625 | >128 |  | 0.0625 |  | 0.0625 | >128 | >128 |  |
| Cc1nnc(SCC2=C(C(=O)O)N3C(=O)[C@@H](NC(=O)Cn4cnnn4)[C@H]3SC2)s1 [Cefazolin sodium, cefazolin sodium] | >128 | >128 | 32 | >128 |  | 8 |  | 128 | >128 | >128 |  |
| CO/N=C(\C(=O)N[C@@H]1C(=O)N2C(C(=O)O)=C(CSc3nc(=O)c(=O)[nH]n3C)CS[C@H]12)c1csc(N)n1 [Ceftriaxone sodium, ceftriaxone sodium] | >128 | >128 | 8 | >128 |  | 128 |  | 16 | >128 | >128 |  |
